This is an account of results in patent US10570077B2, “Substituted (4'-hydroxyphenyl)cyclohexane compounds and uses thereof as selective agonists of the estrogen receptor beta isoform” (Marquette University, priority 2013, dated 2020).

Assay [1] has as its target T1, ERα (Homo sapiens (Human), UniProt P03372). Description: Fluorescence polarization displacement assay (FITC-estradiol tracer). Conditions: for affinity for ERα (qualitative): at concentrations as high as 1 μM; for IC50: read-out: IC50 (ERα affinity, fluorescence polarization displacement assay). It counts as binding. How it is done: ([Tr]) was 10 nM. Sample volume was 150 μL. For each experiment the polarization was calibrated with a sample of FITC set at 20 mP. All proper blanks were used, including water for the FITC samples and blank samples containing only 30 nM ERα protein for the remaining data points.
(In general: Fluorescence polarisation rises when a labelled molecule tumbles more slowly, as on binding a larger partner.)

The target of assay [2] is T2, ERβ (Homo sapiens (Human), UniProt Q92731). Briefly: Cell-based ERβ luminescence antagonist assay (+E2). From the text: (§1) ERα and ERβ assay kits for cell-based assays (Indigo Biosciences) allowed for investigation into the functional activity (i.e. agonist and/or antagonist) of the ligands identified to bind based on the initial fluorescence polarization displacement assay. Briefly, the cells contained a luciferase reporter gene that was functionally linked to either the ERα or ERβ-responsive promoter. By quantifying the luciferase expression via luminescence, the change in ER activity could be quantified. […] For the agonist assay, the cells were prepared by warming to 37° C., plated, then the chemicals added. […] The cells were then plated, and the chemicals added. All plates were incubated in a cell culture incubator at 37° C. and 5% CO2 for 22 h. Each assay was performed in duplicate. Luminescence was characterized after removal of the incubating media and introduction of the Detection Substrate using a Molecular Devices SpectraMax M5 microplate reader. Data was fitted using GraphPad Prism and fit to the dose-response (four parameter) equation as follows.

The target of assay [3] is T2, ERβ. Briefly: Cell-based ERβ luminescence (luciferase reporter) agonist assay.
Excerpt: as §1
(In a reporter assay the amount or activity of a reporter protein is the signal.)

Assay [4] concerns the target T1, ERα. Description: Cell-based ERα luminescence antagonist assay (+E2). How it is done:
ERα and ERβ assay kits for cell-based assays (Indigo Biosciences) allowed for investigation into the functional activity (i.e. agonist and/or antagonist) of the ligands identified to bind based on the initial fluorescence polarization displacement assay. Briefly, the cells contained a luciferase reporter gene that was functionally linked to either the ERα or ERβ-responsive promoter. By quantifying the luciferase expression via luminescence, the change in ER activity could be quantified. 1-2 mM stocks of the ligands were prepared in d6-DMSO and diluted to final concentrations ranging from 3.2 nM to 2 μM, using the Compound Screening Medium provided in the kit. For the agonist assay, the cells were prepared by warming to 37° C., plated, then the chemicals added. […] The cells were then plated, and the chemicals added. All plates were incubated in a cell culture incubator at 37° C. and 5% CO2 for 22 h. Each assay was performed in duplicate. Luminescence was characterized after removal of the incubating media and introduction of the Detection Substrate using a Molecular Devices SpectraMax M5 microplate reader. Data was fitted using GraphPad Prism and fit to the dose-response (four parameter) equation as follows.

The target of assay [5] is T1, ERα. Description: Cell-based ERα luminescence (luciferase reporter) agonist assay.
Excerpt: as §1

Assay [6] has as its target T2, ERβ. Description: TR-FRET ERβ binding assay. Conditions: TR-FRET tracer displacement. How it is done: The binding activity of substituted (4′-hydroxyphenyl)cycloalkane compounds was tested using a TR-FRET ERβ binding assay as illustrated in FIG. 12. […] When the tracer used in the assay is bound, then the ratio is high. When the tracer is displaced, the ratio is low. The following compounds were tested.
For orientation: In TR-FRET formats the signal depends on donor and acceptor labels being close together.

The mark [7] stands for this setting: fluorescence polarization displacement.
The mark [8] stands for this setting: 160 pM E2 added, read-out: ERβ antagonist IC50.
Setting [9] is: normalized, read-out: ERα Normalized Agonist.
The mark [10] stands for this setting: normalized, read-out: ERβ Agonist normalized.

The structures appear in SMILES notation. “And” between values parts separate entries of the source, which are not always exact repeats. Equal entries are not always repeated. Where two headings read alike, the source gives them in different places.

T1 sequence (P03372 whole entry): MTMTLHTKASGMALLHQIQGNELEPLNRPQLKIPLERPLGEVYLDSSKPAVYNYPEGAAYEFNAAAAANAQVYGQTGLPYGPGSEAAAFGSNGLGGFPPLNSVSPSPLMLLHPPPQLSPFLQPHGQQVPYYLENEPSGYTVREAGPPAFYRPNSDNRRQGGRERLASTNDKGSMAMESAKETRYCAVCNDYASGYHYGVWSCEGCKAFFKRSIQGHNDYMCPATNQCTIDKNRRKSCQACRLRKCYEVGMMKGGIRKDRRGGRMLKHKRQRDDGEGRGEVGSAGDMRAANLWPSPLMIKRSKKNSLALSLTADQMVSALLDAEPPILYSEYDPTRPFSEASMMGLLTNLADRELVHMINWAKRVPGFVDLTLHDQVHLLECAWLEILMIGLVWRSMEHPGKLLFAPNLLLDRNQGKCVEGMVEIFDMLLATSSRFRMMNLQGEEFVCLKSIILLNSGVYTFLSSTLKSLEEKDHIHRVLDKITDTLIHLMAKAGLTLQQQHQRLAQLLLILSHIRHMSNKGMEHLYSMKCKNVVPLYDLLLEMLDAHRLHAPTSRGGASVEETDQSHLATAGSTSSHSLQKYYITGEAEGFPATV
T2 sequence (Q92731 whole entry): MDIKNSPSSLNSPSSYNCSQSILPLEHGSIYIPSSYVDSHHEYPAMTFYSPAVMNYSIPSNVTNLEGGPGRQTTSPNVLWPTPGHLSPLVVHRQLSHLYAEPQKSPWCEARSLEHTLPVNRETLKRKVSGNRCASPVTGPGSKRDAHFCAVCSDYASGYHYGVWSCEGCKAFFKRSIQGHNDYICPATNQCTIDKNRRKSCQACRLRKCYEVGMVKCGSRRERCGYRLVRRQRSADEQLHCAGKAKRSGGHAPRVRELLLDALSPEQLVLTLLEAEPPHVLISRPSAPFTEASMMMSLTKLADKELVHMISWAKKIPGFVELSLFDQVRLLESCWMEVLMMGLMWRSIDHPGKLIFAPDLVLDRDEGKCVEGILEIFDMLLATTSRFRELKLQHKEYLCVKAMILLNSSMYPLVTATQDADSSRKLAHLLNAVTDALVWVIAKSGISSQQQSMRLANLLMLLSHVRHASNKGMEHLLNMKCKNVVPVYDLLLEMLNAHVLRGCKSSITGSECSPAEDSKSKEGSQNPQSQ

On to `CC[C@H](C)C1=CC[C@H]2[C@@H]3CCc4cc(O)ccc4[C@H]3CC[C@]12C` [Compound 7, (20S) 3-Hydroxy-19,24-dinorchola-1,3,5(10),16-tetraene], for which, in assay [1], the “affinity for ERα (qualitative)” value is given as “significant affinity”. The Kd in assay [1] (setting [7]) came out at 160 ± 10 nM. Also, the IC50 in assay [1] was 160 to 320 nM; in assay [2] (setting [8]), 70 ± 15 nM; in assay [3], 88 ± 9 nM. Moreover, the “ERβ antagonist activity (qualitative)” value in assay [2] is “ERβ antagonist activity”.

As to `OCC1CCC[C@@H](c2ccc(O)cc2)CC1` (some centres unmarked) [ISP-163], the values for the IC50 in assay [4], in assay [2] and in assay [6] were above 10000 nM, above 100000 nM and 23.5 ± 8 nM, respectively. In addition, the EC50 in assay [5] (setting [9]) is 10500 ± 200 nM; in assay [5] (read-out: ERα Agonist), above 10000 nM; in assay [3] (read-out: ERβ Agonist) it was 30 nM and 33 nM.

Take `OCCC1CCCC(c2ccc(O)cc2)CC1` (centres unmarked) [ISP-248]: the IC50 in assay [4] is above 10000 nM; in assay [2] it was above 10000 nM; in assay [6], 36.8 ± 9.2 nM. In addition, the EC50 in assay [5] (setting [9]) was 45000 ± 17000 nM; in assay [5] (read-out: ERα Agonist) it was above 10000 nM; in assay [3] (setting [10]), 104 nM; in assay [3] (read-out: ERβ Agonist), 142 ± 17 nM.

In turn, `OCC1CCC(c2ccc(O)cc2)CC1` (centres unmarked) [ISP-171] came in with an IC50 in assay [4] above 10000 nM. Besides, the EC50 in assay [5] (setting [9]) was 700000 ± 80000 nM; in assay [5] (read-out: ERα Agonist), above 10000 nM.

In assay [6], `OC[C@H]1C=CCC(c2ccc(O)cc2)C=C1` (some centres unmarked) [RKP-35c] displayed an IC50 of 378 ± 97 nM.

As to `CCCOC(=O)C1CC[C@H]2[C@@H]3CCc4cc(O)ccc4[C@H]3CC[C@]12C` (some centres unmarked) [Compound 4, n-Propyl 3-hydroxyestra-1,3,5(10)-triene-17-carboxylate], the IC50 is 92 ± 1 nM in assay [5], 160 to 320 nM in assay [1] and 9.8 ± 2 nM in assay [3]. Further, in assay [1] (setting [7]), the affinity, expressed as Kd, was 320 ± 40 nM.

For `CCC1CCC(c2ccc(O)cc2)CC1` (centres unmarked) [RKP-231 IF], the IC50 is above 10000 nM in assay [4] (read-out: ERα Antagonist (+E2), +E2); above 10000 nM in assay [2] (read-out: ERβ Antagonist (+E2), +E2); 15.2 ± 1.5 nM in assay [6]. Moreover, the EC50 in assay [5] (setting [9]) was 25000 ± 1300 nM; in assay [5] (read-out: ERα Agonist), above 10000 nM; in assay [3] (setting [10]) it was 89 nM; in assay [3] (read-out: ERβ Agonist) it was 93 ± 7 nM.

Regarding `O/N=C1/CCCC(c2ccc(O)cc2)CC1` (centres unmarked) [ISP-166], the IC50 in assay [4] and in assay [2] was above 10000 nM throughout. Further, the EC50 was 350000 ± 250000 nM in assay [5] (setting [9]), above 10000 nM in assay [5] (read-out: ERα Agonist) and 731 ± 85 nM in assay [3] (read-out: ERβ Agonist).

Take `OC[C@H]1CCC[C@@H](c2ccc(O)cc2)CC1` (racemic) [Compound 18, cis-1-Hydroxymethyl-4-(4′-hydroxyphenyl)-cycloheptane]: the dissociation constant Kd in assay [1] (accurate Kd could not be obtained, estimated) is above 1000 nM. In addition, the figures for the IC50 in assay [2] (read-out: ERβ antagonist IC50) and in assay [3] were 137 ± 100 nM and 5.4 ± 0.3 nM, respectively.

As for `C[C@@H](CCO)C1=CC[C@H]2[C@@H]3CCc4cc(O)ccc4[C@H]3CC[C@]12C` [Compound 11, (20S) 3-Hydroxy-19,24-Dinorchola-1,3,5(10),16-tetraen-23-ol], in assay [1], the “affinity for ERα (qualitative)” value is listed as “significant affinity”. For the same compound, the Kd in assay [1] (setting [7]) came out at 320 ± 40 nM. Also, in assay [2], the “ERβ antagonist activity (qualitative)” value is given as “ERβ antagonist activity”. Besides, the IC50 in assay [2] (setting [8]) was determined as 275 ± 40 nM; in assay [3], 108 ± 67 nM.

Turning to `OC[C@H]1CCC[C@@H](c2ccc(O)cc2)CC1` (relative stereo) [Compound 18, cis-1-Hydroxymethyl-4-(4′-hydroxyphenyl)-cycloheptane], in assay [1], the “affinity for ERα (qualitative)” value is reported as “significant affinity”. In addition, the “ERβ antagonist activity (qualitative)” value in assay [2] is listed as “ERβ antagonist activity”.

`CC1C[C@H](C)C2(CC[C@H]3[C@@H]4CCc5cc(O)ccc5[C@H]4CC[C@@]32C)O1` (some centres unmarked) [Compound 13, 17,23-Epoxy-3-hydroxy-19-norchola-1,3,5(10)-triene]: in assay [5], the “ERα agonist activity (qualitative)” value is given as “agonist activity” and the IC50 came out at 484 ± 1 nM. In addition, the “affinity for ERα (qualitative)” value in assay [1] was “significant affinity”. This compound also showed an equilibrium dissociation constant (Kd) in assay [1] (setting [7]) of 160 ± 10 nM. For the same compound, in assay [2], the “ERβ antagonist activity (qualitative)” value is recorded as “not ERβ antagonists”. Further, the IC50 in assay [3] turned out to be 111 ± 26 nM.

Regarding `C[C@]12CC[C@@H]3c4ccc(O)cc4CC[C@H]3[C@@H]1CC=C2CO` [Compound 2, 3-Hydroxvestra-1,3,5(10),16-tetraene-17-methanol], in assay [5], the “ERα agonist activity (qualitative)” value is given as “agonist activity”. For the same compound, the “ERβ antagonist activity (qualitative)” value in assay [2] was “not ERβ antagonists”. Also, the IC50 in assay [3] worked out at 6.8 ± 0.2 nM.

In the case of `OCC=C1CCC(c2ccc(O)cc2)CC1` (centres unmarked) [RKP-228], the IC50 in assay [6] was 521 ± 87 nM.

Broadly, the Kd is the constant that tells how readily two partners part at equilibrium.
